Measurements: paper PMC9181902 (Journal of the American Chemical Society, 2022)
Entries after “also recorded” stand apart in the source; their conditions may differ.

Columns and labels:
Ala-AT = test: Inhibition of Ala-AT; format: biochemical, human; conditions: even at high concentrations
hOAT [1] = molecular target: T1, hOAT (Homo sapiens, UniProt P04181); test: Partition ratio; format: biochemical
T1 sequence (P04181 26-439): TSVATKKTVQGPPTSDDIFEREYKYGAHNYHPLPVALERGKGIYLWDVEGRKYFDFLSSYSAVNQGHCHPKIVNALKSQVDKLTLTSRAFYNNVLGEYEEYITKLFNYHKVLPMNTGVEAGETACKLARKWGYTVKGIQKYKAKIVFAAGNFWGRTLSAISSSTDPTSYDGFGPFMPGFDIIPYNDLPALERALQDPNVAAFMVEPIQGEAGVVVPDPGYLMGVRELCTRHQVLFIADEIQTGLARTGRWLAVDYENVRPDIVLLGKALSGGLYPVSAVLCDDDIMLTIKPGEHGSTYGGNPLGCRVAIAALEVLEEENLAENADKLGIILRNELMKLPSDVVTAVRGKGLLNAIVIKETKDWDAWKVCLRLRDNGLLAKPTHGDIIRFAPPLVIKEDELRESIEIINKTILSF

GABA-AT [2] = test: Inhibition of GABA-AT; format: biochemical, human; conditions: even at high concentrations
Asp-AT = test: Inhibition of Asp-AT; format: biochemical, human; conditions: even at high concentrations
hOAT [3] = molecular target: T1, hOAT; test: Dialysis of inactivated hOAT, return of enzyme activity; format: biochemical
hOAT [4] = molecular target: T1, hOAT; test: Stopped-flow transient state measurements of hOAT; format: biochemical
GABA-AT [5] = conditions: cited from earlier work
[6] = cited from earlier work
hOAT [7] = molecular target: T1, hOAT; conditions: cited from earlier work

N[C@H]1C=C(C(=O)O)C[C@H]1C(F)F [10b, (3S,4R)-3-Amino-4-(difluoromethyl)cyclopent-1-ene-1-carboxylic Acid]
inhibitory activity against Ala-AT (Ala-AT): weak reversible inhibitory activity | fraction undergoing ketimine hydrolysis to product 37 and PMP (hOAT [1]): ~ 70% | fraction of the reaction forming tight-binding adduct 34 (hOAT [1]; according to the partition ratio (1/3.38)): ~ 30% | inhibitory activity against GABA-AT (GABA-AT [2]): weak reversible inhibitor; also recorded: weak reversible inhibitory activity | inhibitory activity against Asp-AT (Asp-AT): weak reversible inhibitory activity | enzyme activity recovered after dialysis (hOAT [3]; 91 h of dialysis, varying equivalents): no enzyme activity was recovered | first successive rate constant from fit of CCD data sets (k2’) (hOAT [4]; 500 μM of 10b): 0.22 s⁻¹ | second successive rate constant from fit of CCD data sets (k3’) (hOAT [4]; 500 μM of 10b): 0.21 s⁻¹ | third successive rate constant from fit of CCD data sets (k4) (hOAT [4]; 500 μM of 10b): 0.03 s⁻¹ | rate constant for formation of P1 from M2 (k4) (hOAT [4]; 410 nm, second phase, average): ~ 0.02 s^−1

N[C@H]1C=C(C(=O)O)CC1=C(F)F [compound 7, (S)-3-amino-4-(difluoromethylenyl)cyclopent-1-ene-1-carboxylic acid]
type of inhibition of GABA-AT (GABA-AT [5]): partially irreversible inhibitors | enzyme activity recovered after dialysis (hOAT [3]; 48 h of dialysis): no enzyme activity was recovered

N[C@H]1C[C@@H](C(=O)O)CC1=C(F)F [compound 1, (1S,3S)-3-amino-4-(difluoromethylene)cyclopentane-1-carboxylic acid]
enzyme activity recovered after dialysis (hOAT [3]; 48 h of dialysis): no enzyme activity was recovered

N[C@H]1C[C@@H](C(=O)O)CC1=C(C(F)(F)F)C(F)(F)F [6c, (1S,3S)-3-amino-4-(hexafluoropropan-2-ylidenyl)cyclopentane-1-carboxylic Acid]
in vivo antitumor efficacy [6]: potent in vivo antitumor efficacy | Ki (hOAT [7]): 65 ± 10 µM
